Measurements published in patent US20240180880A1, “METHODS OF USING EHMT2 INHIBITORS IN TREATING OR PREVENTING BLOOD DISORDERS” (Epizyme, Inc., priority 2017, published 2024).

Tests used:
[1] = system: Various cell lines; test: Pretreatment model (7+3 or 7+7) combination proliferation assay, cellular ATP luminescence, Loewe synergy; assay type: cell-based; details: several cell lines
Experimental: Pretreatment model: Various cell lines were seeded in flasks at densities that ensured log-linear growth rates for the duration of the assay. […] Cultures were incubated in a humidified atmosphere of 5% CO2 at 37° C. for 4 days. On Day 4 cells were spun down, resuspended in fresh medium, counted and diluted to the original cell density in new flasks. […] Cells were then spun down on Day 7, re-suspended in fresh medium and plated to assay-ready 384 well plates with an automated multichannel dispenser. […] Compounds listed in Table 7 were dispensed with a HP-D300 nanoliter dispenser (Tecan, Mannedorf, Switzerland), with each plate containing 8 combination partners. Plates were then incubated for an additional three or seven days as noted in FIG. 1D to follow a 7+3 or 7+7 model (cell lines with slow growth characteristics were tested in a 7+7 model). Quantification of proliferation through measurement of cellular adenosine triphosphate (ATP) was performed via a luminescent cell viability assay and read on a plate reader with luminescence module. […]
Fa was calculated with the formula:
Fa=1−(Luminescence of test compound/Luminesence of untreated control)

[2] = system: Human CD34+ progenitor cells; test: Human CD34+ progenitors assay for fetal hemoglobin induction, % HbF+ cells by FACS (healthy donors); assay type: cell-based; details: for % HbF+ cells: 26% basal level
Excerpt: An in-vitro system to test the ability of compound to induce fetal hemoglobin expression was developed. This system used Human CD34+ progenitor cells freshly isolated from healthy donors blood collections. Peripheral blood mononuclear cells (PBMCs) were isolated from whole blood by density gradient centrifugation using SepMatem-50 and Lymphoprep™ from Stem Cell Technologies. CD34^+ hematopoietic progenitor cells (HSPCs) were isolated from PBMCs by magnetic separation using Stem Cells Technologies CD34+ positive selection/isolation kit (Stem Cell Technologies, #18056). CD34 cells were cultured using a 2-phase 14 day culture system. During phase 1 (day 0 to day 7) cells were expanded. Expansion was followed by phase 2 (day 7 to day 14) where cells were differentiated toward the erythroid lineage. Compounds were added on day 1 and day 7 as 1000× stock after being diluted in dimethyl sulfoxide (DMSO) in a 3-fold series. Final DMSO concentration in the assay was 0.1%. At day 14 cells were harvested for Fluorescent Activated Cell Sorting (FACS) analysis and for HbF quantitation by Mass spectrometry. For cell surface and intracellular marker analysis by FACS, cells were fixed and stained with a cocktail of antibodies covering erythroid lineage markers, HbF and H3 and H3K9me2 (Table 11). Data was collected using Canto II flow cytometer (BD Biosciences) and the FACSDiva software. Data was analyzed using FlowJo software. % HbF^+ cells and ratios H3/H3K9me2 intensities were calculated for CD71^+/CD235a^+ gated populations.
A list of pharmacological agents was evaluated for their potential to induce fetal Hemoglobin (HbF) in order to identify combination partners for our EHMT1/2 inhibitors. HbF can be induced by toxicity; therefore, the potential of the agents to induce HbF were evaluated in the context of cell viability. (Table 12). The EHMT1/2 inhibitor Compound 205 was evaluated in combination with a fixed dose of 10 μM Hydroxyurea and 0.1 μM Pomalidomide. […] 10 μM Hydroxyurea as a single agent was able to induce 01% HbF^+ cells from 26% basal level to 45% while 0.016 μM compound 205 as a single agent induced to 45%. In combination these two agents were able to induced % HbF^+ to 63% (FIG. 3A). […] 0.1 μM Pomalidomide as a single agent was able to induce ° % HbF cells from 26% basal level to 48% while 0.016 μM compound 205 as a single agent induced to 45%. In combination these two agents were able to induce % HbF^+ to 78% (FIG. 3B).
Hydroxyurea was also evaluated as single agent and in combination with the EHMT1/2 inhibitor compound 205 in a matrix format using CD34^+ cells isolated from a pool of 5 healthy donors. […] (FIG. 4 and FIG. 5, respectively). It is noted that for Loewe excess determination in Chalice, data was normalized to the highest and lowest Hbγ induction observed under the conditions and dose ranges in the assay.

With `CNc1cc(C)nc(Nc2ccc(OC)c(OCCCN3CCCC3)c2)n1` [Compound 205] the “combination effect on proliferation (Loewe)” value ([1]; Compound 205 and ATRA (FIG. 1B)) was “synergy”, the “combination effect on proliferation (Loewe)” value ([1]; Compound 205 and Venetoclax (FIG. 1C)) was “synergy” and the “% HbF+ cells” value ([2]; 0.016 μM compound 205 as a single agent) was 45%. The “% HbF+ cells” value ([2]; 0.016 μM compound 205 in combination with 0.1 μM Pomalidomide) was 78%, the “% HbF+ cells” value ([2]; 0.016 μM compound 205 in combination with 10 μM Hydroxyurea) was 63% and the “combination effect on % HbF+ cells (FACS analysis)” value ([2]; compound 205 with Hydroxyurea, matrix format, CD34+ cells from a pool of 5 healthy donors) was “synergistically”.
